Results published in patent publication US7375226B2, “Bi- and tricyclic substituted phenyl methanones” (Hoffman-La Roche Inc., priority 2004, dated 2008).

Biological target: T1, mGlyT-1b (Mus musculus, UniProt P28571)
T1 construct: host or cells: Flp-in-CHO
T1 sequence (P28571 1-651 isoform P28571-2): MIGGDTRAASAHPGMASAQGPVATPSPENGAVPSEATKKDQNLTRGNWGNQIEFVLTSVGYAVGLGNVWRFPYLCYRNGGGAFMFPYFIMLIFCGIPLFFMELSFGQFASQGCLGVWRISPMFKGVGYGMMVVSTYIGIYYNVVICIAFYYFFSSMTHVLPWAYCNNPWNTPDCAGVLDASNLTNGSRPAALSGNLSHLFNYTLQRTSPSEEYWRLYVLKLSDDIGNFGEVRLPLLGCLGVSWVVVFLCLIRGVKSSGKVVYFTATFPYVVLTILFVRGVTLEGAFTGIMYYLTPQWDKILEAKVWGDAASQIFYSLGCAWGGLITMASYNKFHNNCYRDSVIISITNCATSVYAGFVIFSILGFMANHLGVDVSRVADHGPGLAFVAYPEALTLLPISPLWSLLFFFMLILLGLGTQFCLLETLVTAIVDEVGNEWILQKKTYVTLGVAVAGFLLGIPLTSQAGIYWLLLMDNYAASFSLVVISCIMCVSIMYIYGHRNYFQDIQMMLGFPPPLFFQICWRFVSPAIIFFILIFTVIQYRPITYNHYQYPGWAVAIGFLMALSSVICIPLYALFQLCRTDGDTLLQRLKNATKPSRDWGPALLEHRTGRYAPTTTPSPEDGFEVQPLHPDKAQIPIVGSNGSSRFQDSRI
Test: Glycine uptake inhibition assay (mGlyT-1b), [3H]-glycine uptake in Flp-in-CHO cells
Type: cell-based
Settings: Flp-in-CHO cells stably transfected with mGlyT1b cDNA; [3H]-glycine 60 nM and 25 μM non-radioactive glycine; read-out: IC50 (μM) at GlyT-1
Protocol: • DMEM complete medium: Nutrient mixture F-12 (Gibco Life-technologies), fetal bovine serum (FBS) 5%, (Gibco life technologies), Penicillin/Streptomycin 1% (Gibco life technologies), Hygromycin 0.6 mg/ml (Gibco life technologies), Glutamine 1 mM Gibco life technologies). • Uptake buffer (UB): 150 mM NaCl, 10 mM Hepes-Tris, pH 7.4, 1 mM CaCl2, 2.5 mM KCl, 2.5 mM MgSO4, 10 mM (+) D-glucose. • Flp-in™-CHO (Invitrogen Cat n° R758-07)cells stably transfected with mGlyT1b cDNA. • Glycine uptake inhibition assay (mGlyT-1b)
On day 1 mammalian cells, (Flp-in™-CHO), transfected with mGlyT-1b cDNA, were plated at the density of 40,000 cells/well in complete F-12 medium, without hygromycin in 96-well culture plates. On day 2, the medium was aspirated and the cells were washed twice with uptake buffer (UB). The cells were then incubated for 20 min at 22° C. with either (i) no potential competitor, (ii) 10 mM non-radioactive glycine, (iii) a concentration of a potential inhibitor. A range of concentration of the potential inhibitor was used to generate data for calculating the concentration of inhibitor resulting in 50% of the effect (e.g. IC50, the concentration of the competitor inhibiting glycine uptake of 50%). A solution was then immediately added containing [^3H]-glycine 60 nM (11-16 Ci/mmol) and 25 μM non-radioactive glycine. The plates were incubated with gentle shaking and the reaction was stopped by aspiration of the mixture and washing (three times) with ice-cold UB. The cells were lysed with scintillation liquid, shaken 3 hours and the radioactivity in the cells was counted using a scintillation counter.

SMILES | IC50
CC(C)Oc1ccc(S(C)(=O)=O)cc1C(=O)N1CCN2c3ccc(OC(F)(F)F)cc3CC2C1 (racemic) [Example 14, Rac-(2-Isopropoxy-5-methanesulfonyl-phenyl)-(8-trifluoromethoxy-3,4,10,10a-tetrahydro-1H-pyrazino[1,2-a]indol-2-yl)-methanone] | 0.154 µM
CC(C)Oc1ccc(S(C)(=O)=O)cc1C(=O)N1CCc2c(sc3ccc(Cl)cc23)C1 [Example 1, (6-Chloro-3,4-dihydro-1H-benzo[4,5]thieno[2,3-c]pyridin-2-yl)-(2-isopropoxy-5-methanesulfonyl-phenyl)-methanone] | 0.019 µM
CS(=O)(=O)c1ccc(N2CCOCC2)c(C(=O)N2CCc3c(sc4ccc(Cl)cc34)C2)c1 [Example 2, (6-Chloro-3,4-dihydro-1H-benzo[4,5]thieno[2,3-c]pyridin-2-yl)-(5-methanesulfonyl-2-morpholin-4-yl-phenyl)-methanone] | 0.187 µM
CC(C)COc1ccc(S(C)(=O)=O)cc1C(=O)N1CCc2nc(-c3cccs3)sc2C1 [Example 5, (2-Isobutoxy-5-methanesulfonyl-phenyl)-(2-thiophen-2-yl-6,7-dihydro-4H-thiazolo[5,4-c]pyridin-5-yl)-methanone] | 0.098 µM
CC(C)Oc1ccc(S(C)(=O)=O)cc1C(=O)N1CCc2nc(-c3cccs3)sc2C1 [Example 6, (2-Isopropoxy-5-methanesulfonyl-phenyl)-(2-thiophen-2-yl-6,7-dihydro-4H!-thiazolo[5,4-c]pyridin-5-yl)-methanone] | 0.407 µM
CC(C)Oc1ccc(S(C)(=O)=O)cc1C(=O)N1CCn2c(cc3ccc(Cl)cc32)C1 [Example 9, (7-Chloro-3,4-dihydro-1H-pyrazino[1,2-a]indol-2-yl)-(2-isopropoxy-5-methanesulfonyl-phenyl)-methanone] | 0.134 µM
CC(C)Oc1ccc(S(C)(=O)=O)cc1C(=O)N1CCn2c(cc3cc(OC(F)(F)F)ccc32)C1 [Example 11, (2-Isopropoxy-5-methanesulfonyl-phenyl)-(8-trifluoromethoxy-3,4-dihydro-1H-pyrazino[1,2-a]indol-2-yl)-methanone] | 0.088 µM
CS(=O)(=O)c1ccc(OC2CCCC2)c(C(=O)N2CCn3c(nc4ccccc43)C2)c1 [Example 15, (2-Cyclopentyloxy-5-methanesulfonyl-phenyl)-(3,4-dihydro-1H-benzo[4,5]imidazo[1,2-a]pyrazin-2-yl)-methanone] | 0.367 µM
CC(C)Oc1ccc(C#N)cc1C(=O)N1CCc2c(sc3ccc(Cl)cc23)C1 [Example 19, 3-(6-Chloro-3,4-dihydro-1H-benzo[4,5]thieno[2,3-c]pyridine-2-carbonyl)-4-isopropoxy-benzonitrile] | 0.339 µM
CS(=O)(=O)c1ccc(OCC2CC2)c(C(=O)N2CCc3c(sc4ccc(Cl)cc34)C2)c1 [Example 20, (6-Chloro-3,4-dihydro-1H-benzo[4,5]thieno[2,3-c]pyridin-2-yl)-(2-cyclopropylmethoxy-5-methanesulfonyl-phenyl)-methanone] | 0.026 µM
C[C@H](Oc1ccc(S(C)(=O)=O)cc1C(=O)N1CCc2c(sc3ccc(Cl)cc23)C1)C(F)(F)F [Example 22, (6-Chloro-3,4-dihydro-1H-benzo[4,5]thieno[2,3-c]pyridin-2-yl)-[5-methanesulfonyl-2-((S)-2,2,2-trifluoro-1-methyl-ethoxy)-phenyl]-methanone] | 0.023 µM
CC(C)COc1ccc(S(C)(=O)=O)cc1C(=O)N1CCc2nc(-c3ccc(C(F)(F)F)cc3)sc2C1 [Example 23, (2-Isobutoxy-5-methanesulfonyl-phenyl)-[2-(4-trifluoromethyl-phenyl)-6,7-dihydro-4H-thiazolo[5,4-c]pyridin-5-yl]-methanone] | 0.341 µM
